Assay results published in patent US20200254065A1, “LONG-ACTING GLP-2 ANALOGS” (OPKO Biologics Ltd., priority 2019, published 2020).
Like-named read-outs stand apart in the source and are kept apart here. Numbered stars: 1 amine (or outer) side, 2 acyl side, 3 side chain; on linkers, the order of the positions; unused ones are H or OH. Square brackets hold non-standard residues; d marks the D form. Ends that are not written are not given here. Peptide text beside a SMILES is read from it. * marks the point of attachment. X2 = O=C(OCC1c2cc(N[*:1])ccc2-c2ccc(S(=O)(=O)O)cc21)[*:2]; X1 = N[C@@H](CSC1CC(=O)N(CCC(=O)*)C1=O)C(=O)O; Nle = CCCC[C@H](N)C(=O)O

Experiments:
[1] = PK after single IV injection in rats; format: in vivo
Description: Blood samples were collected at 0.5, 2, 4, 8, 12, 24, 36, 48, 72, 96- and 120-hours post-dose administration.

[2] = 2-compartmental pharmacokinetic modelling (MONOLIX 2018R2); format: in vivo, rat; settings: for half-life: rat, in vivo
Method: An in-depth PK modeling was performed to address the unexpected differences in half life, distribution, and pharmacological effect between V4, Cys-FMS-V4, and Apraglutide in the rat model. The analysis was performed with MONOLIX 2018R2 suite using a 2-compartmental pharmacokinetic model. The data used in this analysis was comprised from 3 independent experiments (data is presented as their average). The concentration versus time data of V4 that was formed from the Cys-FMS-V4 conjugate (the hydrolyzed peptide) was described appropriately using the values of the pharmacokinetic parameters of V4 peptide. Thus, the disposition of the hydrolyzed V4 was identical to that of the V4 peptide following the IV and SC administration.
The pharmacokinetics of Apraglutide in our studies was determined after SC administration. […] Based on this assumption, the values of volumes of distribution and clearance (Vpept, Vss, Vbeta, and CL) were calculated for Apraglutide (Table 13). The values of the other parameters of Apraglutide in Table 14 (the rate constants and the half-lives) are not dependent on this assumption.

[3] = PK after single SC injection in rats (LC-MS/MS); settings: rat, in vivo, 2 mg/kg
Method: To support the pharmacodynamic effects of V4 and Cys-FMS-V4 as detailed in Example 9, a pharmacokinetic analysis was also conducted. In this study (Study reference 15204), all animals were injected SC on Day 1 with 2 mg/kg peptide content of V4, Cys-FMS-V4 and Apraglutide. Blood samples were collected at 2, 8, 12, 24, 36, 48, 72, 96, 120 hours, and Days 7, 8, 9, 10, 11, 12, 13 and 14 post-dose administration and subsequently taken to LC-MS/MS analysis to determine plasma levels of each compound. For Cys-FMS-V4, a 2-analyte method was applied to determine the plasma concentrations of both the full conjugate and the V4 that was hydrolyzed from it (V4 hydrolyzed). Plasma concentrations (μM), as measured by using the LC-MS/MS method, of V4 peptide, Cys-FMS-V4, hydrolyzed V4, and Apraglutide are presented in FIG. 17.

small intestine = experiment: Intestine weight model in rats; format: in vivo, SD rats
Method: In the pharmacology study, the conjugates were injected subcutaneously twice, on days 1 and 3 at 1 mg/kg (peptide dose) and intestine weight was performed on day 6. In addition to the PEGylated conjugates, GLP-2-Gly2 was injected at the same dose and regimen for comparison. The average of the intestine weight of each group was compared to that of the vehicle group.
In a different study, several of the PEGylated teduglutide were injected as a single dose at 1 mg/kg and the intestine weight performed on day 6.
Pharmacology and pharmacokinetic studies were performed with the most promising GLP-2 variants to evaluate their efficacy and longevity, respectively. The intestine weight model in rats was conducted to evaluate efficacy, by measuring percent increase of the intestine weight of treated animals over the vehicle group. In this study, the peptides were injected twice, on days 1 and 3 at 1 mg/kg and the intestine weight was conducted on day 6.
PEG20-FMS-V6, PEG20-Fmoc-V6 and PEG40-FMS-V6 were injected once at 1 mg/kg dose on day 1, while group D was also injected twice on days 1 & 3 at 1 mg/kg. The intestine weight was performed on day 6.
Three different reversible PEGylated GLP-2 variants using mutated peptide #4 were injected at 2 mg/kg (peptide dose), once every 6 days for 12 days. On the 12th day the intestine was weighted and compared to the control group. PEG30-FMS-V4 was injected at 0.5 mg/kg as well to evaluate the efficacy dose range.
In addition to PEG30-FMS-V4 and PEG30-Fmoc-V4 that have been pharmacology evaluated by small intestinal weight evaluation (As shown in Example 5), four other reversible PEGylated variant 4 (“V4”) conjugates and two reversible linker-V4 conjugates were synthesized. All the above were injected to 6 normal SD rats/group once at 2 mg/kg (peptide dose), while on the 6th day, animals were scarified, and the small intestine was weighted followed by histopathology evaluation. […] Therefore, slices from three areas of the intestine (duodenum, jejunum and ilium) were stained with hematoxylin and eosin and at least 7 Crypts+Villi length/slice were measured. The averaged Villi+Crypt length of each treatment group (n=6) was compared to the vehicle group (negative control) and calculated as percentage increase over vehicle.
Additional studies were conducted to evaluate the efficacy of the V4 peptide and the reversible MAL-FMS-V4. The long acting effect of V4 and the conjugates were evaluated at Day 6 and Day 10 following treatment (Study reference 15203). All test groups (n=9) were injected SC with 2 mg/kg peptide content at Day 1. At Days 6 and 10, animals were sacrificed and the small intestine underwent histopathology evaluation (6 animals for Day 6, 3 animals for Day 10). FIGS. 12 and 13 show the pharmacology effect of different V4 conjugates and Apraglutide and Glepaglutide as measured by the percent increase of small intestine weight and crypts plus villi length over vehicle, respectively.
To further evaluate the pharmacology efficacy of V4 and Cys-FMS-V4, an experiment was performed to test their acute and prolonged effect on the small intestine (Study reference 15205). In addition, V4 and Cys-FMS-V4 were administrated as a single SC injection on Day 1 at 3 different doses (0.5, 2.0 or 8.0 mg/kg peptide content, 6 rats per group) to assess the dose dependence effect. The pharmacological effect on small intestine weight and villi plus crypts length was measured at Days 3, 7 and 14, and the results are presented in FIGS. 15 and 16. […] It should be noted that this acute response was higher for V4 compared to Cys-FMS-V4 at all 3 dose levels.

[4] = rats, single IV 2 mg/kg peptide content
[5] = SD rats, SC on days 1 and 3 at 1 mg/kg peptide dose (2 injections), intestine weight on day 6
[6] = single dose 1 mg/kg peptide, intestine weight on day 6, average of two studies
[7] = 0.5 mg/kg peptide dose once every 6 days for 12 days, weighed on 12th day
[8] = 2 mg/kg peptide dose once every 6 days for 12 days, weighed on 12th day

CCCC[C@H](NC(=O)[C@H](CCC(=O)O)NC(=O)[C@H](CC(=O)O)NC(=O)[C@H](CO)NC(=O)[C@H](Cc1ccccc1)NC(=O)[C@H](CO)NC(=O)CNC(=O)[C@H](CCC(=O)O)NC(=O)CNC(=O)[C@H](Cc1c[nH]cn1)NC(=O)OCC1c2cc(NC(=O)CCN3C(=O)CC(SC[C@H](N)C(=O)O)C3=O)ccc2-c2ccc(S(=O)(=O)O)cc21)C(=O)N[C@@H](CC(N)=O)C(=O)N[C@H](C(=O)N[C@H](C(=O)N[C@@H](CC(C)C)C(=O)N[C@@H](CC(=O)O)C(=O)N[C@@H](CC(C)C)C(=O)N[C@@H](CC(C)C)C(=O)N[C@@H](C)C(=O)N[C@@H](C)C(=O)N[C@@H](CCCNC(=N)N)C(=O)N[C@@H](CC(=O)O)C(=O)N[C@@H](Cc1ccccc1)C(=O)N[C@H](C(=O)N[C@@H](CC(N)=O)C(=O)N[C@@H](Cc1c[nH]c2ccccc12)C(=O)N[C@@H](CC(C)C)C(=O)N[C@H](C(=O)N[C@@H](CCC(N)=O)C(=O)N[C@H](C(=O)N[C@@H](CCCCN)C(=O)N[C@H](C(=O)N[C@H](C(=O)N[C@@H](CC(=O)O)C(N)=O)[C@@H](C)O)[C@@H](C)CC)[C@@H](C)O)[C@@H](C)CC)[C@@H](C)CC)[C@@H](C)CC)[C@@H](C)O (stereo partly drawn) [Cys-FMS-V4] (X1-[X2]HGEGSFSDE[Nle]NTILDLLAARDFINWLIQTKITD-NH2)
Fraction of V4 released from the conjugate (AUC ratio) ([1]; rats, single IV 2 mg/kg): ~35% | Cl/F_obs [1, 4]: 0.064 (μmol/kg)/(μmol/L)/h | Vz/F_obs [1, 4]: 0.260 (μmol/kg)/(μmol/L) | Detectability in blood after IV administration ([1]; rats, single IV 2 mg/kg, 24 hours post injection): could not be detected 24 hours post injection | Fraction of Cys-FMS-V4 converted to V4 following SC administration ([2]; 53.8% SC bioavailability, 67.9% hydrolyzed to V4): approximately 36.5% | Vconj ([2]; Cys-FMS-V4 conjugate): 0.119 L/kg | ka—conj ([2]; Cys-FMS-V4 conjugate): 0.0717 h⁻¹ | kconje ([2]; Cys-FMS-V4 conjugate): 0.207 h⁻¹ | kh ([2]; Cys-FMS-V4 conjugate): 0.438 h⁻¹ | Fconj ([2]; Cys-FMS-V4 conjugate, SC bioavailability fraction): 0.538 | % to V4 ([2]; absorbed Cys-FMS-V4 hydrolyzed to V4): 67.9% | half-life ([2]; Cys-FMS-V4 conjugate, Table 15, read-out: t1/2 absorption (converted)): 9.67 h | half-life ([2]; Cys-FMS-V4 conjugate, read-out: t1/2 hydrolysis (converted)): 1.58 h | half-life ([2]; Cys-FMS-V4 conjugate, read-out: t1/2 other pathways (converted)): 3.35 h

CCCC[C@H](NC(=O)[C@H](CCC(=O)O)NC(=O)[C@H](CC(=O)O)NC(=O)[C@H](CO)NC(=O)[C@H](Cc1ccccc1)NC(=O)[C@H](CO)NC(=O)CNC(=O)[C@H](CCC(=O)O)NC(=O)CNC(=O)[C@@H](N)Cc1c[nH]cn1)C(=O)N[C@@H](CC(N)=O)C(=O)N[C@H](C(=O)N[C@H](C(=O)N[C@@H](CC(C)C)C(=O)N[C@@H](CC(=O)O)C(=O)N[C@@H](CC(C)C)C(=O)N[C@@H](CC(C)C)C(=O)N[C@@H](C)C(=O)N[C@@H](C)C(=O)N[C@@H](CCCNC(=N)N)C(=O)N[C@@H](CC(=O)O)C(=O)N[C@@H](Cc1ccccc1)C(=O)N[C@H](C(=O)N[C@@H](CC(N)=O)C(=O)N[C@@H](Cc1c[nH]c2ccccc12)C(=O)N[C@@H](CC(C)C)C(=O)N[C@H](C(=O)N[C@@H](CCC(N)=O)C(=O)N[C@H](C(=O)N[C@@H](CCCCN)C(=O)N[C@H](C(=O)N[C@H](C(=O)N[C@@H](CC(=O)O)C(N)=O)[C@@H](C)O)[C@@H](C)CC)[C@@H](C)O)[C@@H](C)CC)[C@@H](C)CC)[C@@H](C)CC)[C@@H](C)O [V4 (hydrolyzed)] (H-HGEGSFSDE[Nle]NTILDLLAARDFINWLIQTKITD-NH2)
Cl/F obs [3]: 0.034 (μmol/kg)/(μmol/L)/h | Vz/F_obs [3]: 2.19 (μmol/kg)/(μmol/L) | Cl/F_obs ([1]; rat, in vivo, iv, 2 mg/kg): 0.042 (μmol/kg)/(μmol/L)/h | Vz/F_obs ([1]; rat, in vivo, iv, 2 mg/kg): 0.487 (μmol/kg)/(μmol/L)

PEG30-FMS-(GLP-2-Gly2): teduglutide reversibly PEGylated, PEG30 via FMS linker; heterogenous mixture of N terminus and Lys30 attachment
Average Intestine weight (gr) (small intestine; [5]): 9.5 gr | Increase of intestine weight over vehicle (%) (small intestine; [5]): 73% | Increase of intestine weight over vehicle (%) (small intestine; [6]): 34%

PEG30-FMS-V4 (HGEGSFSDE[Nle]NTILDLLAARDFINWLIQTKITD-NH2; also: PEG30-FMS conjugate, place not given here)
Average Intestine weight (gr) (small intestine; [7]): 5.2 gr | Increase of intestine weight over vehicle (%) (small intestine; [7]): −14% | Average Intestine weight (gr) (small intestine; [8]): 6.9 gr | Increase of intestine weight over vehicle (%) (small intestine; [8]): 15%

PEG30-NRF-V4 (HGEGSFSDE[Nle]NTILDLLAARDFINWLIQTKITD-NH2; also: PEG30-NRF conjugate, place not given here)
Avg. small intestine weight (gr) (small intestine; normal SD rats, injected once at 2 mg/kg peptide dose, 6th day): 4.0 gr | Small intestine weight increase over vehicle (%) (small intestine; normal SD rats, injected once at 2 mg/kg peptide dose, 6th day, MAL-FMS-V4 compared to Vehicle 2): −8.0%

PEG40-EMCS-(GLP-2-Gly2): non-reversible PEGylation (PEG40, EMCS) conjugated to GLP-2-Gly2
Average Intestine weight (gr) (small intestine; [5]): 6.6 gr | Increase of intestine weight over vehicle (%) (small intestine; [5]): 19%

PEG40-FMS-(GLP-2-Gly2): teduglutide reversibly PEGylated, PEG40 via FMS linker; heterogenous mixture of N terminus and Lys30 attachment
Average Intestine weight (gr) (small intestine; [5]): 9.3 gr | Increase of intestine weight over vehicle (%) (small intestine; [5]): 70% | Increase of intestine weight over vehicle (%) (small intestine; [6]): 27%

PEG40-Fmoc-(GLP-2-Gly2): teduglutide reversibly PEGylated, PEG40 via Fmoc linker; heterogenous mixture of N terminus and Lys30 attachment
Average Intestine weight (gr) (small intestine; [8]): 6.9 gr | Increase of intestine weight over vehicle (%) (small intestine; [8]): 14% | Average Intestine weight (gr) (small intestine; [5]): 9.4 gr | Increase of intestine weight over vehicle (%) (small intestine; [5]): 72% | Increase of intestine weight over vehicle (%) (small intestine; [6]): 31%

PEG(Branch20)-FMS-(GLP-2-Gly2): teduglutide reversibly PEGylated with branched PEG via FMS linker; tables say Branch20, b275 Branched30
Average Intestine weight (gr) (small intestine; [5]): 7.8 gr | Increase of intestine weight over vehicle (%) (small intestine; [5]): 42%

PEGBranched40-FMS-(GLP-2-Gly2): teduglutide reversibly PEGylated with branched PEG40 via FMS linker
Average Intestine weight (gr) (small intestine; [5]): 8.1 gr | Increase of intestine weight over vehicle (%) (small intestine; [5]): 48% | Increase of intestine weight over vehicle (%) (small intestine; [6]): 22%
